Test results published in US9611276B2, “Imidazo bicyclic iminium compounds as antitumor agents” (THE BOARD OF TRUSTEES OF THE LELAND STANFORD JUNIOR …, priority 2012, dated 2017).

How the values were obtained:
Format in all cases: cell-based
Gli1 = biological target: T1, Gli1 (Homo sapiens, UniProt P08151); test: Overexpression of Gli1 in NIH-3T3 cells, firefly luciferase reporter
T1 construct: expressed in transfected cells; host or cells: NIH-3T3 (mouse fibroblasts)
T1 sequence (P08151 1-1106): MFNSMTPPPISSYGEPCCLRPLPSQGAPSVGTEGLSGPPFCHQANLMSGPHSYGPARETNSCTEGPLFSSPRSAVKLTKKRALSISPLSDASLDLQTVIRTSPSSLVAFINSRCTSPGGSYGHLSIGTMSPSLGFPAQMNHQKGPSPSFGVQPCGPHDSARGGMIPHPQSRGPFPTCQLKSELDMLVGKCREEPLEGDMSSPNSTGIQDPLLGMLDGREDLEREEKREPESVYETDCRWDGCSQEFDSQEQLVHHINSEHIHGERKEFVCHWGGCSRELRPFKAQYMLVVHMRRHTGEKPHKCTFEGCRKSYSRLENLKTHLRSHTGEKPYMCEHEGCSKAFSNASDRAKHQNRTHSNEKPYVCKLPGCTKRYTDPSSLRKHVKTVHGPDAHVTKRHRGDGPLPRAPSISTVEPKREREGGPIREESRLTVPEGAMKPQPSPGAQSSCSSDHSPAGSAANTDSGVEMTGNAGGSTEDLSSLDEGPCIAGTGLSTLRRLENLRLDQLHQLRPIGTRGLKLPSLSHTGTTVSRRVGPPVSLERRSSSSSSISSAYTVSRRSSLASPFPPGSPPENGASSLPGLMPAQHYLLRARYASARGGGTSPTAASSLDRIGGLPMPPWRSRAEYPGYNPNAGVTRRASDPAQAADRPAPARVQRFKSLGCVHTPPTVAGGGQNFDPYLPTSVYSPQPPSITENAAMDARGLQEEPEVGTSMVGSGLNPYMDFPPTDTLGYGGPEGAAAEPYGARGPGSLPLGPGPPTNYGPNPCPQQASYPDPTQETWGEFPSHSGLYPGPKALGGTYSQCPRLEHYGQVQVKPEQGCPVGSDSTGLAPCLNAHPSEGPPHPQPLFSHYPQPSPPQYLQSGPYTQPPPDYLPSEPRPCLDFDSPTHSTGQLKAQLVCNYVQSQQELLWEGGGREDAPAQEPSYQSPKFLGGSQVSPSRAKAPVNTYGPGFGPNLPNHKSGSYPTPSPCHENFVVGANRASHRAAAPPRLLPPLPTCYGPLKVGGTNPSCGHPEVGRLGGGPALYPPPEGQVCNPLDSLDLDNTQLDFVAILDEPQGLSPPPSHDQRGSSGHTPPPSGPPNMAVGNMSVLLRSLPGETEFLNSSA
Protocol: NIH-3T3 cells were obtained from ATCC and cultured in DMEM (Invitrogen, 11965) containing 10% (v/v) calf serum (ATCC, 30-2030), 1 mM sodium pyruvate (Invitrogen, 11360) and 1× PenStrep (Gibco, 15140).
All test compounds were dissolved in DMSO at 50 mM, serially diluted by 1:3, 1:4 or 1:5 in a 96-well translucent microplate (Greiner bio-one, 650201) and stored at −20° C. These serial dilutions were added to assay media freshly with final DMSO concentration of 0.2% (v/v).
Overexpression of Gli1 or Gli2 in NIH-3T3 cells provides a measure of Gli1- or Gli1/Gli2-induced pathway activity, respectively. NIH 3T3 cells were seeded into a 24-well plate (35,000 cells/well) and cultured for 30 hrs. […] The cells were lysed with passive lysis buffer (200 μL/well), and 10 μL of the obtained lysate were analyzed for firefly and Renilla luciferase activities using Dual-Luciferase Reporter Assay System (Promega, E1960) (50 μL/well of each reagent) on a microplate luminometer (Veritas). Biological triplicates were analyzed for each test compounds.

Smo = biological target: T2, Smo (Mus musculus, UniProt P56726); test: Smo trafficking assay in NIH 3T3 cells; conditions: Hh-responsive cells, ShhN stimulation
T2 construct: endogenous in cells; host or cells: NIH 3T3
From the text: The cells were imaged using a Plan Apochromat 63×/1.4-0.6 oil immersion objective on an upright Leica DM4500B compound microscope.

Gli3 = test: Hh ligand-dependent Gli3 processing in Shh-EGFP cells
Protocol: Each compound or vehicle treatment was conducted in the presence or absence of 10% (v/v) Shh-N-conditioned medium. The cells were then lysed by incubation with SDS-PAGE loading buffer composed of 50 mM Tris-HCl, pH 6.8, 2% (w/v) SDS, 8% (v/v) glycerol, 100 mM DTT, 0.1 mg/mL bromophenol blue, EDTA-free protease inhibitor cocktail (Roche) and Phosstop (Roche) for 5 min in a cold room. […] The membranes were dehydrated with methanol and probed overnight at 4° C. with goat polyclonal anti-Gli3 antibody (1 μg/mL; R & D Systems, AF3690) in PBS containing 4% (w/v) non-fat dry milk and 0.01% (v/v) Tween-20 (immunoblot blocking buffer). […] Band intensities of Gli3FL and Gli3R were quantified using ImageJ64 software (NIH), and three independent experiments were used to determine the average Gli3FL/Gli3R ratio for each compound.

T2 sequence (P56726 33-793): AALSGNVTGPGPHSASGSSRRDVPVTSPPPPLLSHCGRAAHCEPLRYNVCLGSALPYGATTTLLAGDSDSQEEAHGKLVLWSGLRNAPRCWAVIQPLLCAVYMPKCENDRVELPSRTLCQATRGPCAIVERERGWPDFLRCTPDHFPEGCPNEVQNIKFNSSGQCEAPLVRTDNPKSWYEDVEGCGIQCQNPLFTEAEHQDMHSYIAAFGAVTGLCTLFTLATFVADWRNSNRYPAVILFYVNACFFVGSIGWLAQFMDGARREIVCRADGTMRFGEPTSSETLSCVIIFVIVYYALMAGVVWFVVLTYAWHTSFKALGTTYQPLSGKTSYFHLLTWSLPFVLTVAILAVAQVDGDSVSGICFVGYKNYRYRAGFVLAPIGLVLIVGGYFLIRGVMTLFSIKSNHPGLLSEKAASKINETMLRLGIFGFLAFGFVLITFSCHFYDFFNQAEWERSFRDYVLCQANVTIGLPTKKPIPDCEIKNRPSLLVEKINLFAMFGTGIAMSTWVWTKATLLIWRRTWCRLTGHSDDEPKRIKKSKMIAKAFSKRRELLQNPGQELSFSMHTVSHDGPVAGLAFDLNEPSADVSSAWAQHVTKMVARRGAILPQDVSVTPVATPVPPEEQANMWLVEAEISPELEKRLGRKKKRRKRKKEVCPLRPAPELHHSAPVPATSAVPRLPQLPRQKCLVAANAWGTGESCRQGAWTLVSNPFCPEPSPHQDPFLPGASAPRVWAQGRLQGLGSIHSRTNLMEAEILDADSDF

Compound: CCOc1ccc(-[n+]2cc(-c3ccc(Br)cc3)n3c2CCCCC3)cc1 [Compound A-1]
- Exogenous Gli1 activity (Gli1): potently blocked
- Effect on Smo localization / trafficking (Smo): did not affect Smo localization
- Effect on Gli3FL phosphorylation (Gli3): Nor did the compound prevent Gli3FL phosphorylation
- Effect on Gli3 processing, Gli3FL/Gli3R ratio (Gli3; ShhN stimulation): did not perturb Gli3 processing
